Test results from ChEMBL document CHEMBL5365487, “Development of 18F-Labeled PET Tracer Candidates for Imaging of the Abelson Non-receptor Tyrosine Kinase in Parkinson's Disease” (J Med Chem, 2023).

Legend:
[1] = biological target: Tyrosine-protein kinase Lck (Homo sapiens) (UniProt P06239); test: Inhibition of LCK (unknown origin) at 1 uM by ADP-Glo kinase assay relative to control
[2] = AUC in C57BL6 mouse brain assessed as free brain drug at 0.5 mg/kg, iv single administration measured upto 24 hrs by LC-MS/MS analysis; type: ADME, organism-based; parameters: dose 0.5 mg/kg, time < 24 hrs, route iv; settings: in vivo
[3] = biological target: Interleukin-1 receptor-associated kinase 1 (Homo sapiens) (UniProt P51617); test: Inhibition of IRAK1 (unknown origin) at 1 uM by ADP-Glo kinase assay relative to control
[4] = Metabolic stability in human liver microsomes assessed as stability measured after 30 mins by LC-MS/MS analysis; type: ADME, Microsome; settings: read-out: Drug metabolism
[5] = biological target: T1, Interleukin-1 receptor-associated kinase 3 (Homo sapiens) (UniProt Q9Y616); test: Inhibition of IRAK3 (unknown origin) at 1 uM by ADP-Glo kinase assay relative to control
T1 sequence (whole entry): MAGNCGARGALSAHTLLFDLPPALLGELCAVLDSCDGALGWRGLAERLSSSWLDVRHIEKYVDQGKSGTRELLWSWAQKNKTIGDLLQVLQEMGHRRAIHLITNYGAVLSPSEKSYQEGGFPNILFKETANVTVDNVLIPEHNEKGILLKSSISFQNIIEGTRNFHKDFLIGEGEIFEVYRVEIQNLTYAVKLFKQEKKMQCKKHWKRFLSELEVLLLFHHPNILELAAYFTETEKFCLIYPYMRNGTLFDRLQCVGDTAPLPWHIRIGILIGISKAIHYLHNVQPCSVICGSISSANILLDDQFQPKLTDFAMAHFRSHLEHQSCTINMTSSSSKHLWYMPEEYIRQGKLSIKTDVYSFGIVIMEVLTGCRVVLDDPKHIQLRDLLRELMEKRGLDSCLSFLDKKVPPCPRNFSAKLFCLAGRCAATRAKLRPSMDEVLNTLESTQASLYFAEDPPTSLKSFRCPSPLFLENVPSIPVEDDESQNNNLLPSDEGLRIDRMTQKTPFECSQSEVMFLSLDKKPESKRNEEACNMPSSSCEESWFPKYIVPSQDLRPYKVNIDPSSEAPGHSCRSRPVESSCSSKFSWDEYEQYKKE

[6] = AUC (0 to last) in C57BL6 mouse brain at 0.5 mg/kg, iv single administration measured upto 24 hrs by LC-MS/MS analysis; type: ADME, organism-based; parameters: time < 24 hrs, dose 0.5 mg/kg, route iv
[7] = biological target: Leucine-rich repeat serine/threonine-protein kinase 2 (Homo sapiens) (UniProt Q5S007); test: Inhibition of LRRK2 (unknown origin) at 1 uM by ADP-Glo kinase assay relative to control
[8] = Initial plasma concentration in C57BL6 mouse plasma at 0.5 mg/kg, iv single administration measured upto 24 hrs by LC-MS/MS analysis; type: ADME, organism-based
[9] = Plasma protein binding in CD-1 ISG mouse plasma measured after 4 hrs by equilibrium dialysis based LC-MS/MS analysis; type: ADME, cell-free; settings: read-out: PPB (converted)
[10] = Ratio of total drug brain AUC to total plasma AUC in C57BL6 mouse brain at 0.5 mg/kg, iv single administration measured upto 24 hrs by LC-MS/MS analysis; type: ADME, organism-based
[11] = Ratio of free drug brain AUC to free plasma AUC in C57BL6 mouse brain at 0.5 mg/kg, iv single administration measured upto 24 hrs by LC-MS/MS analysis; type: ADME, organism-based; settings: read-out: K(p,uu,brain)
[12] = AUC in C57BL6 mouse brain at 0.5 mg/kg, iv single administration measured upto 24 hrs by LC-MS/MS analysis; type: ADME, organism-based; parameters: dose 0.5 mg/kg, time < 24 hrs, route iv
[13] = Half life in C57BL6 mouse brain at 0.5 mg/kg, iv single administration measured upto 24 hrs by LC-MS/MS analysis; type: ADME, organism-based
[14] = biological target: Receptor-interacting serine/threonine-protein kinase 2 (Homo sapiens) (UniProt O43353); test: Inhibition of RIPK2 (unknown origin) at 1 uM by ADP-Glo kinase assay relative to control
[15] = In vivo stability in iv dosed Hsd:ICR (CD-1) mouse brain assessed as stability measured after 5 mins by radio-HPLC analysis; type: ADME, organism-based; settings: read-out: Stability
[16] = Ex vivo biodistribution in Hsd:ICR (CD-1) mouse assessed as brain uptake at 12.5 to 26.9 MBq, iv measured for 5 to 90 mins in presence of imidazole [1,2-alpha]pyridine by gamma counter analysis; type: ADME, organism-based; settings: dose lower 12.5 MBq, time lower 5 min, dose upper 26.9 MBq, time upper 90 min
[17] = In vivo stability in iv dosed Hsd:ICR (CD-1) mouse plasma assessed as stability measured after 45 mins by radio-HPLC analysis; type: ADME, organism-based; settings: for remaining at 0.75 h: Hsd:ICR (CD-1), plasma, read-out: Stability
[18] = In vivo stability in iv dosed Hsd:ICR (CD-1) mouse brain assessed as stability measured after 90 mins by radio-HPLC analysis; type: ADME, organism-based; settings: read-out: Stability
[19] = Ex vivo biodistribution in Hsd:ICR (CD-1) mouse assessed as brain uptake at 12.5 to 26.9 MBq, iv measured for 5 to 90 mins by gamma counter analysis; type: ADME, organism-based; settings: dose lower 12.5 MBq, time lower 5 min, dose upper 26.9 MBq, time upper 90 min
[20] = In vivo stability in iv dosed Hsd:ICR (CD-1) mouse plasma assessed as stability measured after 90 mins by radio-HPLC analysis; type: ADME, organism-based; settings: for Stability: in vivo, iv
[21] = Ex vivo biodistribution in Hsd:ICR (CD-1) mouse assessed as blood uptake at 12.5 to 26.9 MBq, iv measured after 90 mins by gamma counter analysis; type: ADME, organism-based; settings: dose 12.5-26.9 MBq
[22] = In vivo stability in iv dosed Hsd:ICR (CD-1) mouse plasma assessed as stability measured after 5 mins by radio-HPLC analysis; type: ADME, organism-based; settings: for remaining at 5 min: Hsd:ICR (CD-1), plasma, read-out: Stability
[23] = Ex vivo biodistribution in Hsd:ICR (CD-1) mouse assessed as brain uptake at 12.5 to 26.9 MBq, iv measured for 5 mins by gamma counter analysis; type: ADME, organism-based; settings: dose 12.5-26.9 MBq
[24] = In vivo stability in iv dosed Hsd:ICR (CD-1) mouse brain assessed as stability measured after 5 to 90 mins by radio-HPLC analysis; type: ADME, organism-based; settings: time 5-90 min
[25] = Half life in C57BL6 mouse brain at 1 mg/kg, iv single administration measured upto 24 hrs by LC-MS/MS analysis; type: ADME, organism-based
[26] = AUC in C57BL6 mouse brain at 1 mg/kg, iv single administration measured upto 24 hrs by LC-MS/MS analysis; type: ADME, organism-based; parameters: time < 24 hrs, dose 1 mg/kg, route iv
[27] = AUC (0 to last) in C57BL6 mouse brain at 1 mg/kg, iv single administration measured upto 24 hrs by LC-MS/MS analysis; type: ADME, organism-based; parameters: time < 24 hrs, dose 1 mg/kg, route iv
[28] = Initial plasma concentration in C57BL6 mouse plasma at 1 mg/kg, iv single administration measured upto 24 hrs by LC-MS/MS analysis; type: ADME, organism-based
[29] = Ratio of total drug brain AUC to total plasma AUC in C57BL6 mouse brain at 1 mg/kg, iv single administration measured upto 24 hrs by LC-MS/MS analysis; type: ADME, organism-based
[30] = AUC in C57BL6 mouse brain assessed as free brain drug at 1 mg/kg, iv single administration measured upto 24 hrs by LC-MS/MS analysis; type: ADME, organism-based; parameters: time < 24 hrs, dose 1 mg/kg, route iv; settings: in vivo
[31] = Ex vivo biodistribution in Hsd:ICR (CD-1) mouse assessed as thigh bone uptake at 12.5 to 26.9 MBq, iv measured after 90 mins by gamma counter analysis; type: ADME, organism-based; settings: dose 12.5-26.9 MBq
[32] = Ex vivo biodistribution in Hsd:ICR (CD-1) mouse assessed as thigh bone uptake at 12.5 to 26.9 MBq, iv measured for 5 mins by gamma counter analysis; type: ADME, organism-based; settings: dose 12.5-26.9 MBq
[33] = Biodistribution in Hsd:ICR (CD-1) mouse assessed as brain uptake at 12.5 to 26.9 MBq, iv in presence of imidazole [1,2-alpha]pyridine measured at early time points by PET imaging analysis; type: ADME, organism-based; settings: in vivo, dose 12.5-26.9 MBq

Leucine-rich repeat serine/threonine-protein kinase 2 (Homo sapiens), sequence (Q5S007 whole entry): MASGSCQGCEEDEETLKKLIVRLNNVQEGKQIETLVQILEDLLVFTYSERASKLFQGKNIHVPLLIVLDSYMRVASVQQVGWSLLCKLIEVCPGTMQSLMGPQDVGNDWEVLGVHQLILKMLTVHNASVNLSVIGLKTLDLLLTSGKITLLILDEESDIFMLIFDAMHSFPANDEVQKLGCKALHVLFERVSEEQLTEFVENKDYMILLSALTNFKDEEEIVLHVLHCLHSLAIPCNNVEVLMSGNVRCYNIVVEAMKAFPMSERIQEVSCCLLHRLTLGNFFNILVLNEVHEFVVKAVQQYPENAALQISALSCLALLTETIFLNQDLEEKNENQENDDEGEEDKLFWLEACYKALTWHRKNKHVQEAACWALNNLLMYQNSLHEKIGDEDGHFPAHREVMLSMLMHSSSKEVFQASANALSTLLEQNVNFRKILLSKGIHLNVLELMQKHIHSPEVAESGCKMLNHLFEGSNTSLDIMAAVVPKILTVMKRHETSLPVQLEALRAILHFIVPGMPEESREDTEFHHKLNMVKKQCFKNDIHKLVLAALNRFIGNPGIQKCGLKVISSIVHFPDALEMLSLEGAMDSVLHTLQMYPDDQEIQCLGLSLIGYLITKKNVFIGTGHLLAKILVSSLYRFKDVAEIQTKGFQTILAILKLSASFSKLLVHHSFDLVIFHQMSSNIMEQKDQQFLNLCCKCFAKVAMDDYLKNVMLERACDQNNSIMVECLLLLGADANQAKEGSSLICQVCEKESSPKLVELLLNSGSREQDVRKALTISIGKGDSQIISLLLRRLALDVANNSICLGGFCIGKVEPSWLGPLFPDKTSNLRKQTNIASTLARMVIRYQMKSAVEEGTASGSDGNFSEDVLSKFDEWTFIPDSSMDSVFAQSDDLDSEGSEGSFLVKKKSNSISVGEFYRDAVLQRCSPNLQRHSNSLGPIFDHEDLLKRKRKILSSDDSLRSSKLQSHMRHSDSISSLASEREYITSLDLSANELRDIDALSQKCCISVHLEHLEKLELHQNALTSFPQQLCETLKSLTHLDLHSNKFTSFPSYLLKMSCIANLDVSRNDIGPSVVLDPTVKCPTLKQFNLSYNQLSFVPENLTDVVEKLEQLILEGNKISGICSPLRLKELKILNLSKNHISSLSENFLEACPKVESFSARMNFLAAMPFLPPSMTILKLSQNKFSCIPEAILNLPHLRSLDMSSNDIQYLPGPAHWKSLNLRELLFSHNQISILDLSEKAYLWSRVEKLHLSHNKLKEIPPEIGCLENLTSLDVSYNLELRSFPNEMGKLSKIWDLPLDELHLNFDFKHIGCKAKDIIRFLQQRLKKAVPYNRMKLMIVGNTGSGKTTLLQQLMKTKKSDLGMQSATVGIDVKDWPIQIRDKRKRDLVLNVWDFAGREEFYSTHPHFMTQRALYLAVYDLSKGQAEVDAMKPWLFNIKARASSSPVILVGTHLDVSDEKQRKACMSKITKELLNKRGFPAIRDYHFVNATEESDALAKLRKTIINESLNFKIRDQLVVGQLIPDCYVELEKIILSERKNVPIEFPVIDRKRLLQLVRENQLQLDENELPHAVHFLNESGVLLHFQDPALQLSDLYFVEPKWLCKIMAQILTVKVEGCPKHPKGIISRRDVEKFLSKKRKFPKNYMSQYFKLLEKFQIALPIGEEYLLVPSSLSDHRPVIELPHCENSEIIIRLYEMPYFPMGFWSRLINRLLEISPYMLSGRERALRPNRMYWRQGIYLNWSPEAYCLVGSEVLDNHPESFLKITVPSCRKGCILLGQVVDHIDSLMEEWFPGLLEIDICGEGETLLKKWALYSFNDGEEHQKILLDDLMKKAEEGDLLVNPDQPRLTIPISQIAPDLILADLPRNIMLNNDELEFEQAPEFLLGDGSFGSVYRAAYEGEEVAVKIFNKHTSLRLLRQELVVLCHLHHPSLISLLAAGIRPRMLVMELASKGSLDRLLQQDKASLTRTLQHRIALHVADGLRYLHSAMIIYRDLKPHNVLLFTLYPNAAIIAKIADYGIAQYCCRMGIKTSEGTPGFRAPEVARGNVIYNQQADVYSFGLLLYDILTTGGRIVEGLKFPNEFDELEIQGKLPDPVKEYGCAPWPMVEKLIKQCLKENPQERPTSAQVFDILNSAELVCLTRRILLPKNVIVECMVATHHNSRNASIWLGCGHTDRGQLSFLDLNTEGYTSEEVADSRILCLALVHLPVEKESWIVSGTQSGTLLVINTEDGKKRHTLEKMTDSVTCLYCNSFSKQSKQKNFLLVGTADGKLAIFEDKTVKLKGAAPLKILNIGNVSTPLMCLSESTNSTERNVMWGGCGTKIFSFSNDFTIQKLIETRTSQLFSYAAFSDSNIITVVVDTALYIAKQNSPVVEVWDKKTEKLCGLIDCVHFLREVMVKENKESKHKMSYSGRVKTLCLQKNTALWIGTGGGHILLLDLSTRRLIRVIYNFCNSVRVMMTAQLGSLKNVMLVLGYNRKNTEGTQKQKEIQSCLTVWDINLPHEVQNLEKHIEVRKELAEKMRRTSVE
Interleukin-1 receptor-associated kinase 1 (Homo sapiens), sequence (P51617 whole entry, looked up): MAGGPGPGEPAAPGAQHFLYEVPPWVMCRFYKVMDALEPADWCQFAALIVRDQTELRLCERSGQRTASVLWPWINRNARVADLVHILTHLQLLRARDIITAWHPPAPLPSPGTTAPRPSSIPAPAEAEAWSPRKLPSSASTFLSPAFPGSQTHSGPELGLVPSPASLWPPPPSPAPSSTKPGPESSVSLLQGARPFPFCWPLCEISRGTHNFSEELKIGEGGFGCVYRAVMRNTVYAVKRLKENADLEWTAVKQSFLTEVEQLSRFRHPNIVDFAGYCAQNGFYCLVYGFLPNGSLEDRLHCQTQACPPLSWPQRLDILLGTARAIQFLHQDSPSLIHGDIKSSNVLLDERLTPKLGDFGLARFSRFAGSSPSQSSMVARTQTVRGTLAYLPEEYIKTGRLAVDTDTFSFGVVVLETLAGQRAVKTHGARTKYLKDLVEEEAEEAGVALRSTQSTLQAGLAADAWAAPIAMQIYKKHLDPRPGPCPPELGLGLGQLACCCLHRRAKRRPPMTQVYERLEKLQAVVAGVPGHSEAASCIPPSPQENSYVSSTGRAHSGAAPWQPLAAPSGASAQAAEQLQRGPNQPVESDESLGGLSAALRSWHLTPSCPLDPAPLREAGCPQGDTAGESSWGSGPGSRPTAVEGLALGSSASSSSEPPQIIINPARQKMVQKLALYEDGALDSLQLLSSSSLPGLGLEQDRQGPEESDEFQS
Receptor-interacting serine/threonine-protein kinase 2 (Homo sapiens), sequence (O43353 whole entry): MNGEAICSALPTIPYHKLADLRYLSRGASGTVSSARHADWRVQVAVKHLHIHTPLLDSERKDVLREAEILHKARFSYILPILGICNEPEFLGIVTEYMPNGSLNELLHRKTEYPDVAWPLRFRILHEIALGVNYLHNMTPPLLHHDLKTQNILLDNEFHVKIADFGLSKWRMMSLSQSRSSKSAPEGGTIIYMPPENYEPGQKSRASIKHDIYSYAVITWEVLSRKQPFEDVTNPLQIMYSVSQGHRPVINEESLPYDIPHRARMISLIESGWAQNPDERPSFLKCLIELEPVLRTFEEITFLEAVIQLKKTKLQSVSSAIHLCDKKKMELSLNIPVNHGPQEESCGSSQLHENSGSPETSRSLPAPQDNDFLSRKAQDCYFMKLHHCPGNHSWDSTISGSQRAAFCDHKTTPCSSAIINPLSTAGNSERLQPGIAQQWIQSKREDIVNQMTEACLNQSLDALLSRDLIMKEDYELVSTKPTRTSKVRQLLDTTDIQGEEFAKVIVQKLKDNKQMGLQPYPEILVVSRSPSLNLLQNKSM
Tyrosine-protein kinase Lck (Homo sapiens), sequence (P06239 2-509 limits assumed): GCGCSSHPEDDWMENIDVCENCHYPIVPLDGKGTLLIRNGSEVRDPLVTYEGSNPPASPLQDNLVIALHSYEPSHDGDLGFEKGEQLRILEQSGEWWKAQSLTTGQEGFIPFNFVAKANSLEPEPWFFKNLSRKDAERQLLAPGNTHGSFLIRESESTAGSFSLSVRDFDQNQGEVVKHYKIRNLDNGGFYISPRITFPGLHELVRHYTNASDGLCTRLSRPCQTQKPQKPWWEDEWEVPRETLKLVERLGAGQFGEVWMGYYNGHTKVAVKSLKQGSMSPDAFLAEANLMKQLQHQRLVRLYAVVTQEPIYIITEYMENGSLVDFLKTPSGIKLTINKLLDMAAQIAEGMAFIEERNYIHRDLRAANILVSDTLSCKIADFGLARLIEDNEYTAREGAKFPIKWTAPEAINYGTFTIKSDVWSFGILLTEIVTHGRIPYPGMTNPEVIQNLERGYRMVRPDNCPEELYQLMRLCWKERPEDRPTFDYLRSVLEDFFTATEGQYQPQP

Row | SMILES | remaining at 0.5 h [4] [%] | fraction unbound at 4 h [9] | remaining at 5 min [15] [%] | Drug uptake [16] | remaining at 0.75 h [17] [%] | remaining at […] [18] [%] | Drug uptake [19] | Stability [20] | Drug uptake [21] [% ID/g] | remaining at 5 min [22] [%] | Drug uptake [23] [% ID/g] | half-life [25] [min] | AUC at 24 h [26] [ng·h/mL] | AUC(0-t) at 24 h [27] [ng·h/mL] | C0 at 24 h [28] [ng/mL] | Kp at 24 h [29] | AUC [30] [ng·h/mL] | other results
1 | Cc1cc(F)ncc1-c1ccc2nc(NC(=O)[C@@H]3C[C@@H]3F)sc2c1 | < 30 | 0.0192 |  |  |  |  |  |  |  |  |  |  |  |  |  |  |  | inhibition [1]: > 80%; AUC [2]: 10 ng·h/mL; inhibition [3]: > 80%; inhibition [5]: > 80%; AUC(0-t) at 24 h [6]: 3380 ng·h/mL; inhibition [7]: > 80%; C0 at 24 h [8]: 1580 ng/mL; Kp at 24 h [10]: 0.49; Kp uu at 24 h [11]: 0.15; AUC at 24 h [12]: 1670 ng·h/mL; half-life [13]: 540 min; inhibition [14]: > 80%
2 | O=C(Nc1cn2cc(-c3cccc(F)c3OCC[18F])ccc2n1)[C@@H]1C[C@@H]1F |  |  | 88 | Active | 18 | 33 | Active | Unstable | 0.2 | 64 | 1.1 |  |  |  |  |  |  | 
3 | Cc1cc([18F])ncc1-c1ccc2nc(NC(=O)[C@@H]3C[C@@H]3F)sc2c1 |  |  |  | Active |  |  | Active |  | 1.2 |  | 4.2 |  |  |  |  |  |  | Stability ([17]; in vivo, iv, 0.75 h): Stable; remaining at […] ([20]; Hsd:ICR (CD-1), plasma, read-out: Stability): 91%; Stability [24]: 99.42%; Stability ([22]; in vivo, iv, 5 min): Stable
4 | O=C(Nc1cn2cc(-c3cccc(F)c3OCCF)ccc2n1)[C@@H]1C[C@@H]1F | < 30 | 0.0692 |  |  |  |  |  |  |  |  |  | 30 | 112 | 536 | 536 | 0.21 | 4 | 
5 | O=C(Nc1cn2cc(-c3ccccc3CC[18F])ccc2n1)[C@@H]1C[C@@H]1F |  |  | 93 | Active | 13 | 8.5 | Active | Unstable | 0.3 | 72 | 3.1 |  |  |  |  |  |  | Drug uptake [31]: 2.7 % ID/g; Drug uptake [32]: 1.6 % ID/g; Drug uptake [33]: Active
6 | O=C(Nc1cn2cc(-c3ccccc3CCF)ccc2n1)[C@@H]1C[C@@H]1F | < 30 | 0.0734 |  |  |  |  |  |  |  |  |  | 12 | 182 | 597 | 597 | 0.31 | 5 | 
